# Assay results from patent US11712466B2, “Vaccine composition” (TOHOKU UNIVERSITY, priority 2017, dated 2023).
# “Also recorded” adds a separate entry of the source. Ends that are not written are not given here.
# Assays:
# mZeb1 = assay: Gene expression in excised tumor tissue by real-time PCR, mZeb1; format: in vivo, mouse; conditions: tumor excised two weeks after implantation
# Protocol: The mouse implanted with the tumor cells in Example 2 was sacrificed two weeks after implantation of the tumor cells, and a tumor was excised from the right axillary subcutaneous region. By using RNeasy Plus Kit (Qiagen, Inc.), extraction of the total RNA from the excised tumor and purification thereof were carried out. By using the obtained total RNA as a template, cDNA was synthesized by reverse transcription reaction. The cDNA was analyzed by performing real-time PCR using a mixed solution of the obtained cDNA and SYBR green (TAKARA BIO, Inc.).
# K5 cells = assay: Tumor growth inhibitory effect, subcutaneous implant model of K5 cells; format: in vivo, mouse
# Protocol: 100 μg of KLH (control) or 100 μg of the MTG peptide vaccine was prepared with physiological saline so that the total amount was 100 &L, respectively, whereby KLH-mixed solutions were obtained. To each of the KLH-mixed solutions (100 μL), an equal amount of Alhydrogel (registered trademark) was added. The obtained mixture (200 μL) was intradermally (ID) administered to C57BL/6Jx129SVJ mice aged 8 weeks, whereby initial immunization was carried out (0 day). After 2 weeks from the administration (14 days), booster immunization was carried out. Further, after 2 weeks from the booster immunization (28 days), K5 cells were implanted in each of the mice, whereby a subcutaneous implant model was prepared. In order to confirm that an anti-VASH2 antibody was induced in the mice, the blood was collected at 0 day, 14 day, and 28 day, and the antibody titer was confirmed by ELISA (FIG. 15).
substance,measurement,setting,value
MTG peptide vaccine: MTG peptide MTGSAADTHR (SEQ ID NO: 4) conjugated with KLH as carrier by a glutaraldehyde method (also: conjugated with KLH by glutaraldehyde),expression of mZeb1 (epithelial-mesenchymal transition marker) in tumor tissue,mZeb1,dose-dependent expression inhibitory effect; also recorded: significantly inhibited depending on the dose
same,"tumor size (tumorigenesis), K5 cells, Experiment 1","K5 cells; C57BL/6Jx129SVJ mice n=2, 100 μg, 14 to 40 days after implantation",significant inhibition of tumorigenesis
same,"tumor size (tumorigenesis), K5 cells, Experiment 2","K5 cells; C57BL/6Jx129SVJ mice n=11, 100 μg, day 15 after implantation, vs KLH p=0.0002",tumorigenesis was significantly inhibited
